Results taken from ChEMBL document CHEMBL1142345, “Synthesis and biological evaluation of alpha- and beta-6-amido derivatives of 17-cyclopropylmethyl-3, 14beta-dihydroxy-4, 5alpha-epoxymorphinan: potential alcohol-cessation agents” (J Med Chem, 2008).
Active and inactive are the calls of the source. The rule behind the calls is not given here.

Legend:
[1] = target: T1, Kappa-type opioid receptor (Homo sapiens, UniProt P41145); test: Displacement of [3H]U69593 from human kappa opioid receptor expressed in CHO cells; assay type: cell-based
T1 sequence (P41145 whole entry): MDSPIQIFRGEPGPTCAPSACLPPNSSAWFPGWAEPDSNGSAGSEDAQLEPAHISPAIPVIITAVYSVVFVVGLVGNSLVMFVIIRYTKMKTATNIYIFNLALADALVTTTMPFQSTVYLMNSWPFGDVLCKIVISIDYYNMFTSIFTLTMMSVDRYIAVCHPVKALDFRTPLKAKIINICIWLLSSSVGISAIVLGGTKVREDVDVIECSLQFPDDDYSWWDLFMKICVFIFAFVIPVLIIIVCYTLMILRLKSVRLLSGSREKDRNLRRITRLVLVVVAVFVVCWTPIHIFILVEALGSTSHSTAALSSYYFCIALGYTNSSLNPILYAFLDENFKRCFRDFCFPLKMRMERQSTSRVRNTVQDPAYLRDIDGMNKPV

[2] = target: T2, Mu-type opioid receptor (Homo sapiens, UniProt P35372)
T2 sequence (P35372 whole entry): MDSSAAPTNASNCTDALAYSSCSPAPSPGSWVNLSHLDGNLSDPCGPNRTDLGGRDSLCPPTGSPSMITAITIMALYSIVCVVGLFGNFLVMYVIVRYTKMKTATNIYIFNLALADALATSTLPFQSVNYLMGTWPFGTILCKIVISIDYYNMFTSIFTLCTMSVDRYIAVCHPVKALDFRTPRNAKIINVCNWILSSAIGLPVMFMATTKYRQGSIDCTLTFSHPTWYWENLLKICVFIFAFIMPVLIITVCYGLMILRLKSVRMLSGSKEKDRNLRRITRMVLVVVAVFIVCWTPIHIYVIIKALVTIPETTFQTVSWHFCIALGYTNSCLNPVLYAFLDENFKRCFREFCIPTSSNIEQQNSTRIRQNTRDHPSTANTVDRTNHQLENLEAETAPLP
Description: Activity at human mu opioid receptor by [35S]GTPgammaS binding assay

[3] = species: Homo sapiens; test: Selectivity ratio of Ki for human mu opioid receptor over Ki for human kappa opioid receptor
[4] = target: T3, Delta-type opioid receptor (Homo sapiens, UniProt P41143); test: biochemical
T3 sequence (P41143 whole entry): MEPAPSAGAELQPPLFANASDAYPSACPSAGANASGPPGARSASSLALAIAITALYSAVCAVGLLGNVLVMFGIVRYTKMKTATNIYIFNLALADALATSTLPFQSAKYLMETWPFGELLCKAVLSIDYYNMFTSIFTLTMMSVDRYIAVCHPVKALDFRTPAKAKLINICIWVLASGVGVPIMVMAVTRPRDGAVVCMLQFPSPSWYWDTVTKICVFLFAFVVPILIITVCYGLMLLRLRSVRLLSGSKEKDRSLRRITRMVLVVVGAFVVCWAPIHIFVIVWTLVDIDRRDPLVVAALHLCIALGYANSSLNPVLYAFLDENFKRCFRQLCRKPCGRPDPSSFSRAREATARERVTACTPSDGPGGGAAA
Description: Displacement of [3H]DPDPE from human delta opioid receptor expressed in CHO cells

[5] = target: T2, Mu-type opioid receptor; test: Displacement of [3H]DAMGO from human mu opioid receptor expressed in CHO cells; assay type: cell-based
[6] = species: Homo sapiens; test: Selectivity ratio of Ki for human mu opioid receptor over Ki for human delta opioid receptor
[7] = tested on: Rattus norvegicus; test: Inhibition of self alcohol consumption in rat at 0.025 mg/kg using operant techniques; assay type: functional
[8] = target: CYP2C19 (Homo sapiens, UniProt P33261); test: Inhibition of CYP2C19 at 10 uM; assay type: ADME
CYP2C19, sequence (P33261 whole entry): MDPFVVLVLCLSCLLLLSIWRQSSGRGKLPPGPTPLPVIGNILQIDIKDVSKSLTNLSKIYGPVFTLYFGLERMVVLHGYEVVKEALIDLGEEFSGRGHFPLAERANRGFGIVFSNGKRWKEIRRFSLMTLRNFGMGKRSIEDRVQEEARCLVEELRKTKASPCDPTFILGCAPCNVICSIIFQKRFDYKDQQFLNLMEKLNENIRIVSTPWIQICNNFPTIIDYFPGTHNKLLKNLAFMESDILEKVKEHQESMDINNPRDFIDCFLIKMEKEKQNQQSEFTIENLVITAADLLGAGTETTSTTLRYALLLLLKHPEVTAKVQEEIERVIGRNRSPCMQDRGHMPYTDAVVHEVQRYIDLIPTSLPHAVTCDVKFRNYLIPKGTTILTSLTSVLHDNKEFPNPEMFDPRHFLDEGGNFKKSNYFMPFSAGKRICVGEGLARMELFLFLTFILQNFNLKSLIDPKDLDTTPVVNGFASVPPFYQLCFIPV

[9] = Metabolic stability assessed as half life in human liver S9 fraction at 40 uM; assay type: ADME, subcellular
[10] = target: CYP3A4 (Homo sapiens, UniProt P08684); test: Inhibition of CYP3A4 at 10 uM; assay type: ADME
CYP3A4, sequence (P08684 whole entry): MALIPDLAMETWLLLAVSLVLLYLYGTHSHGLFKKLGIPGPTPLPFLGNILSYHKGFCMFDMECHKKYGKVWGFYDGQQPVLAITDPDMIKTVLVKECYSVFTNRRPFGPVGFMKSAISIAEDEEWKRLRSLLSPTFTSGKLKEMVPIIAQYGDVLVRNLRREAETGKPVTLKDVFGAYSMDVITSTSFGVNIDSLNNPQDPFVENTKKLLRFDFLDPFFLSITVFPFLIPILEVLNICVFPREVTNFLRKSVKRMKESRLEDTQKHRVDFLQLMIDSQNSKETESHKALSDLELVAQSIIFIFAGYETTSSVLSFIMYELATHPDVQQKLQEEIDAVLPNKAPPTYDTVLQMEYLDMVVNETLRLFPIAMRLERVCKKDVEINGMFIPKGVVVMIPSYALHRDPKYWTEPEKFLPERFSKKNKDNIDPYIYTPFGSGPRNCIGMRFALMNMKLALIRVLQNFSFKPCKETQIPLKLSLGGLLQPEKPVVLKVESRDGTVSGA

[11] = target: CYP2C9 (Homo sapiens, UniProt P11712); test: Inhibition of CYP2C9 at 10 uM; assay type: ADME
CYP2C9, sequence (P11712 whole entry): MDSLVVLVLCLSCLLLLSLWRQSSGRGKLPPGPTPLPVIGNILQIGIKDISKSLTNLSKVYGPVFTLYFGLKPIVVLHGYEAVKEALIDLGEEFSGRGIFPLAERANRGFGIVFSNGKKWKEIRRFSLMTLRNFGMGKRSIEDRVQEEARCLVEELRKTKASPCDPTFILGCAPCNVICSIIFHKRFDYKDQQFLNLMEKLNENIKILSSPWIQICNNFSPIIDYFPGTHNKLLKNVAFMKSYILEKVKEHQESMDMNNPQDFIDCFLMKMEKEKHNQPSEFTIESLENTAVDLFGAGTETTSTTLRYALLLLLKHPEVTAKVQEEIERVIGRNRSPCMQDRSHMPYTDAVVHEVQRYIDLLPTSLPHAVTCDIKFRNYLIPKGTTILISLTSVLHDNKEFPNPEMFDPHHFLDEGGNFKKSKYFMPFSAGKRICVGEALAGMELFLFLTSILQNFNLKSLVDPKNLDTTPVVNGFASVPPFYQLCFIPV

[12] = target: T3, Delta-type opioid receptor; test: Agonist activity at human delta opioid receptorR by [35S]GTPgammaS binding assay; assay type: functional
[13] = tested on: Rattus norvegicus; test: Inhibition of self alcohol consumption in rat at 2 mg/kg using operant techniques; assay type: functional
[14] = target: T1, Kappa-type opioid receptor; test: Agonist activity at human kappa opioid receptorR by [35S]GTPgammaS binding assay; assay type: functional
[15] = target: T4, CYP2B6 (Homo sapiens, UniProt P20813); test: Inhibition of CYP2B6 at 10 uM; assay type: ADME
T4 sequence (P20813 whole entry): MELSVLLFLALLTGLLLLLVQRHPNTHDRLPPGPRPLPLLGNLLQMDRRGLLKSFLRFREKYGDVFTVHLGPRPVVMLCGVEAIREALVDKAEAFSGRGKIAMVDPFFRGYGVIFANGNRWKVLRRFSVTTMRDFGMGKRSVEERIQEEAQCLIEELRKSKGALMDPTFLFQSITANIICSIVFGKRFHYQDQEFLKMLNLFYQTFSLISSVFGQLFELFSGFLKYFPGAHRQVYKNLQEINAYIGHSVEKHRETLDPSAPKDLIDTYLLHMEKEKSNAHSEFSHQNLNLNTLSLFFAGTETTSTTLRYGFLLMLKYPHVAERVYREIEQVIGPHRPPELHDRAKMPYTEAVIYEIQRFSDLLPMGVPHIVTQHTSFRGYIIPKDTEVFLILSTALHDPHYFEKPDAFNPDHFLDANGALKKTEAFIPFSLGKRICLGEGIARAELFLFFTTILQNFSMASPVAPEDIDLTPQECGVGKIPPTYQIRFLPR

[16] = target: CYP2D6 (Homo sapiens, UniProt P10635); test: in vitro
CYP2D6, sequence (P10635 whole entry): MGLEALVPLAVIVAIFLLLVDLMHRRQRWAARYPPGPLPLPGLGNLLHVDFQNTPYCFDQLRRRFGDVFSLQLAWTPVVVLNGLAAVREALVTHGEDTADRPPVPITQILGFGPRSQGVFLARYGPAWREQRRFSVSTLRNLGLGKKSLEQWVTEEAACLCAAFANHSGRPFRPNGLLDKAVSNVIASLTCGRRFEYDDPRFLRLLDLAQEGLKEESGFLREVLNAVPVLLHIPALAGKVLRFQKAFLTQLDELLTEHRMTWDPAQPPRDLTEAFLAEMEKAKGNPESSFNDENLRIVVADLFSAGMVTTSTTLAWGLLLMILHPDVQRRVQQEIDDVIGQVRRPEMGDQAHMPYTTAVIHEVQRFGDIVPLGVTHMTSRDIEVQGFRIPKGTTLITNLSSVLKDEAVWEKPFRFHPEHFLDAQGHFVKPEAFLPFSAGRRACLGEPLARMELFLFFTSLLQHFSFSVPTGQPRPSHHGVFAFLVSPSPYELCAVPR
Description: Inhibition of CYP2D6 at 10 uM

| Structure (SMILES) | Ki [1] [nM] | Ratio Ki [3] | Ki [4] [nM] | Ki [5] [nM] | Ratio Ki [6] | also measured |
| --- | --- | --- | --- | --- | --- | --- |
| O=C(CCc1ccccc1)N[C@@H]1CC[C@@]2(O)[C@H]3Cc4ccc(O)c5c4[C@@]2(CCN3CC2CC2)[C@H]1O5 | 0.09 | 0.8 | 12.2 | 0.12 | 100 | Ke [2]: 0.15 nM |
| O=C(Cc1cccs1)N[C@H]1CC[C@@]2(O)[C@H]3Cc4ccc(O)c5c4[C@@]2(CCN3CC2CC2)[C@H]1O5 | 2.74 | 7.2 | 2.07 | 0.38 | 5.5 |  |
| O=C(Cc1ccccc1)N[C@@H]1CC[C@@]2(O)[C@H]3Cc4ccc(O)c5c4[C@@]2(CCN3CC2CC2)[C@H]1O5 | 0.43 | 2.7 | 28 | 0.16 | 180 |  |
| O=C(N[C@@H]1CC[C@@]2(O)[C@H]3Cc4ccc(O)c5c4[C@@]2(CCN3CC2CC2)[C@H]1O5)c1ccccn1 | 0.39 | 1.3 | 56.3 | 0.31 | 180 |  |
| O=C(N[C@@H]1CC[C@@]2(O)[C@H]3Cc4ccc(O)c5c4[C@@]2(CCN3CC2CC2)[C@H]1O5)c1ccc(Cl)c(Cl)c1 |  |  |  |  |  | inhibition in vivo at 0.025 mg/kg [7]: 77%; inhibition at 10 µM [8]: 48.3%; half-life at 40 µM [9]: 5.77 h; inhibition at 10 µM [10]: 35.5%; inhibition at 10 µM [11]: 32.3% |
| O=C(N[C@H]1CC[C@@]2(O)[C@H]3Cc4ccc(O)c5c4[C@@]2(CCN3CC2CC2)[C@H]1O5)c1ccccc1 | 0.78 |  |  | 0.21 |  |  |
| COc1cccc(C(=O)N[C@@H]2CC[C@@]3(O)[C@H]4Cc5ccc(O)c6c5[C@@]3(CCN4CC3CC3)[C@H]2O6)c1 | 0.24 | 2 | 3.8 | 0.12 | 32 | Activity [12]: Active; inhibition in vivo at 2 mg/kg [13]: 75%; Activity [14]: Active; Ke [2]: 0.17 nM; inhibition at 10 µM [8]: 47.1%; inhibition at 10 µM [15]: 49.3%; inhibition at 10 µM [16]: 31.2%; inhibition at 10 µM [10]: 44.9% |
| O=C(N[C@@H]1CC[C@@]2(O)[C@H]3Cc4ccc(O)c5c4[C@@]2(CCN3CC2CC2)[C@H]1O5)c1cccc([N+](=O)[O-])c1 | 0.28 |  |  | 0.19 |  |  |
| COc1cc(OC)cc(C(=O)N[C@@H]2CC[C@@]3(O)[C@H]4Cc5ccc(O)c6c5[C@@]3(CCN4CC3CC3)[C@H]2O6)c1 | 0.29 | 1.1 | 17.6 | 0.26 | 68 |  |
| Nc1ccc(C(=O)N[C@@H]2CC[C@@]3(O)[C@H]4Cc5ccc(O)c6c5[C@@]3(CCN4CC3CC3)[C@H]2O6)cc1 | 0.4 | 0.93 | 36.5 | 0.43 | 85 |  |
| COC(=O)c1ccc(C(=O)N[C@@H]2CC[C@@]3(O)[C@H]4Cc5ccc(O)c6c5[C@@]3(CCN4CC3CC3)[C@H]2O6)cc1 | 0.73 | 3.5 | 27.2 | 0.21 | 130 |  |
| O=C(O)c1ccc(C(=O)N[C@@H]2CC[C@@]3(O)[C@H]4Cc5ccc(O)c6c5[C@@]3(CCN4CC3CC3)[C@H]2O6)cc1 | 151 | 14.9 | 79.2 | 10.1 | 7860 |  |
| O=C(N[C@@H]1CC[C@@]2(O)[C@H]3Cc4ccc(O)c5c4[C@@]2(CCN3CC2CC2)[C@H]1O5)c1cccc(O)c1 | 0.06 | 0.5 | 2.73 | 0.13 | 21 |  |
| O=C(C[C@@H]1O[C@H](CO)[C@@H](O)[C@H](O)[C@H]1O)N[C@H]1CC[C@@]2(O)[C@H]3Cc4ccc(O)c5c4[C@@]2(CCN3CC2CC2)[C@H]1O5 | 2.03 | 3 | 36.9 | 0.67 | 55 |  |
